Source: patent US20120183635A1, “ROSEMARY EXTRACTS, DIETARY AND PHARMACEUTICAL COMPOSITIONS CONTAINING THEM AND THEIR USES” (DSM IP ASSETS B.V., priority 2006, published 2012)

Tested on: duration of immobility
Assay: Porsolt's Forced Swim Test (FST) in the mouse
Format: in vivo
Details: 32 mg/kg p.o., −24, −5, −1 h
Method: Mice were individually placed in a cylinder (Height=24.5 cm, Diameter=19.5 cm) containing 13.5 cm water (22° C.) from which they could not escape. The mice were placed in the water for 6 min and the duration of immobility during the last 4 min was measured. Ten mice were studied per group. Rosemary extract (dissolved in corn oil) was evaluated at 272, 409 and 545 mg/kg body weight, administered orally 24, 5, and 1 h before the test, and compared with a vehicle-treated control group. Imipramine (32 mg/kg, p.o.; dissolved in distilled water), administered under the same experimental conditions, was used as reference substance. Data were analysed by comparing all groups using one-way Analysis of Variance (ANOVA) and the Bonferroni post-hoc test.

CN(C)CCCN1c2ccccc2CCc2ccccc21 [Imipramine, imipramine]
DURATION OF IMMOBILITY % change from control: −59%
DURATION OF IMMOBILITY (as % total test time) mean ± S.D.: 17.75 ± 9.92 % total test time
